Experimental data: publication PMC8037586, “Synthesis and Enantioselective Pharmacokinetic/Pharmacodynamic Analysis of New CNS-Active Sulfamoylphenyl Carbamate Derivatives” (International Journal of Molecular Sciences, 2021)
Where two headings read alike, the source gives them in different places.

How the values were obtained:
[1] = biological target: T1, human carbonic anhydrase (CA) isoform I (Homo sapiens, UniProt P00915); test: Stopped-flow CO2 hydrase assay, CA I; format: biochemical; conditions: for Ki: means ± SEM of 3 different assays
[2] = biological target: T2, human carbonic anhydrase (CA) isoform VII (Homo sapiens, UniProt P43166); test: Stopped-flow CO2 hydrase assay, CA VII; format: biochemical; conditions: for Ki: means ± SEM of 3 different assays
[3] = biological target: T3, human carbonic anhydrase (CA) isoform IV (Homo sapiens, UniProt P22748); test: Stopped-flow CO2 hydrase assay, CA IV; format: biochemical; conditions: means ± SEM of 3 different assays
[4] = tested on: rat maximal electroshock test (MES); test: Rat maximal electroshock (MES) anticonvulsant test; format: in vivo; conditions: po, rats dosed p.o., read-out: MES-ED50 [95% CI]
Description: The experiments with the MES model were conducted in male Sprague Dawley rats weighing 100–120 g (Charles River Laboratories, Wilmington, MA, USA) as previously described. Eight rats were tested per dose in the dose–response curve in order to determine the ED50 value of each compound. The experiments were approved by the Ethical Committee of the NIH-ETSP program where the anticonvulsant activity was tested.

[5] = Pharmacokinetics from plasma levels after i.p. administration to rats; format: in vivo, rat; conditions: i.p. 80 mg/kg; for CL/F / Cmax / MRT / Tmax / half-life / Vd/F / AUC(0-inf): male, Sprague Dawley, rat, ip; for Vd/F: read-out: Vss/F; for AUC(0-inf): plasma
Description: (§1) The pharmacokinetics (PK) of racemic-MBPC and its two individual enantiomers were studied following i.p. administration (80 mg/kg) to male Sprague Dawley rats weighing approximately 200–250 g, and their major PK parameters were estimated. The PK experiments were approved by the Ethical Committee of the Hebrew University’s Faculty of Medicine. The dose was administered to rats in multisol that is a mixture of propylene glycol, alcohol (EtOH), and water for injection at a ratio of 8:1:1. The study details were as described previously. Plasma and brain levels of racemic-MBPC and its individual enantiomers were monitored at 20, 40, 60, 90, 120, 160, 180, 200, 220, and 260 min after dosing. Two rats were sacrificed at each time point.
(§2) Plasma and brain concentrations of each compound were quantified by an HPLC assay. The HPLC analysis was performed on a system (2695 Separation Module; Waters, Milford, MA, USA) with a photodiode array UV detector (2996 PDA Detector; Waters, Milford, MA, USA) conditioned as follows: Kinetex, 5 u EVO C18 100 A, 1504.6-mm column (PhenomenexVR, Torrance, CA, USA). Linear gradients (5–95% acetonitrile content) with H2O (0.1% formic acid) and acetonitrile were used as the eluents with a flow rate of 1 mL/min at 20 °C. The compounds and the internal standard were detected at 250 nm. Plasma and brain concentrations of MBPC and its two individual enantiomers were quantified as previously described, [29].
(§3) The PK parameters of each compound were calculated by non-compartmental analysis based on statistical moment theory using the PK software Phoenix Winnonlin Tripos L.P. (Pharsight Co., Mountain View, CA, USA) as previously described.

[6] = biological target: T4, human carbonic anhydrase (CA) isoform II (Homo sapiens, UniProt P00918); test: Stopped-flow CO2 hydrase assay, CA II; format: biochemical; conditions: for Ki: means ± SEM of 3 different assays
rats [7] = test: Minimal neurotoxicity (TD50) in rats; format: in vivo, rat; conditions: rats dosed p.o.
Description: (§4) Table 3 Quantitative anticonvulsant and minimal neurotoxicity data (ED50 and TD50 values) and protective indexes (PI) of […] (MBPC) and 3-methylpentyl(4-sulfamoylphenyl)carbamate (MSPC). in rats dosed p.o. or i.p. ^b. | column: Neurotoxicity-TD50 (mg/kg) [95% CI] ^a; Protective Index (PI = TD50/ED50)

[8] = Minimal neurotoxicity (TD50) in rats; format: in vivo, rat; conditions: rat, in vivo, po; rats dosed p.o.; read-out: Neurotoxicity-TD50 [95% CI]
Description: as §4

[9] = Pharmacokinetics from brain levels after i.p. administration to rats; format: in vivo, rat; conditions: i.p. 80 mg/kg; for AUCinf / AUC(0-inf) / CL/F / Cmax / MRT / Tmax / half-life / Vd/F: brain levels; for AUCinf / AUC(0-inf): 80 mg/kg; for AUC(0-inf) / Kp / CL/F / Cmax / MRT / Tmax / half-life / Vd/F: male, Sprague Dawley, rat, ip; for Kp: AUCbrain/AUCplasma, read-out: Brain-to-plasma (AUCinf) ratio; for Vd/F: read-out: Vss/F
Description: as §1, §2, §3

[10] = biological target: T2, human carbonic anhydrase (CA) isoform VII; set-up: method as in PMID 28275953, PMID 31124389; conditions: previously reported data; cited from earlier work
[11] = biological target: T3, human carbonic anhydrase (CA) isoform IV; set-up: method as in PMID 28275953, PMID 31124389; conditions: previously reported data; cited from earlier work
[12] = biological target: T4, human carbonic anhydrase (CA) isoform II; set-up: method as in PMID 28275953, PMID 31124389; conditions: previously reported data; cited from earlier work
[13] = tested on: rat maximal electroshock test (MES); set-up: method as in PMID 28275953, PMID 31124389; conditions: cited from earlier work
[14] = biological target: T1, human carbonic anhydrase (CA) isoform I; set-up: method as in PMID 28275953, PMID 31124389; conditions: previously reported data; cited from earlier work
rats [15] = tested on: rats; set-up: method as in PMID 28275953, PMID 31124389; conditions: cited from earlier work
[16] = Enantiostability: extraction from rat plasma and optical rotation measurement; format: in vitro ADME; conditions: extracted from rat plasma; specific optical rotation compared to initial value
Description: MBPC was not included in such a series. […] The slightly better BPR of (S)-MBPC may contribute to its better rat anticonvulsant ED50 value. MBPC’s BPR values were better than that of (S)-MSPC but lower than those of racemic- and (R)-MSPC [10]. While (R)-MSPC has lower plasma and brain exposure compared to (S)-MSPC, the two MBPC enantiomers had similar brain permeability, with a slightly better BPR value for (S)-MBPC.

T3 sequence (P22748 19-312): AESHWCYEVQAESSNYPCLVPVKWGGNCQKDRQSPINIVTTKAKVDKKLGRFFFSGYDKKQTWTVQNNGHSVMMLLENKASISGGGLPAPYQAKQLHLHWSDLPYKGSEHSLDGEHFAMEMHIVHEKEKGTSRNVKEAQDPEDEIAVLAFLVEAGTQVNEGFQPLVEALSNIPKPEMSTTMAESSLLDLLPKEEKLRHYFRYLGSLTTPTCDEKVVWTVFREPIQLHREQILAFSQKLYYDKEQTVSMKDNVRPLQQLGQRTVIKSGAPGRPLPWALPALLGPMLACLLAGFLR
T1 sequence (P00915 whole entry, canonical isoform): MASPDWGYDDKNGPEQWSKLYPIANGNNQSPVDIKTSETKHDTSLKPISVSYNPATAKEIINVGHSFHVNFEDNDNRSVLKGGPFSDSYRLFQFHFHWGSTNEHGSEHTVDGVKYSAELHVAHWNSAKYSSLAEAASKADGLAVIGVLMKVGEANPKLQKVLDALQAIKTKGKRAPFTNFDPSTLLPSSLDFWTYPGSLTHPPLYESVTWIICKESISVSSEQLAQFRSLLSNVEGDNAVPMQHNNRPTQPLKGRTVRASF
T2 sequence (P43166 whole entry, canonical isoform): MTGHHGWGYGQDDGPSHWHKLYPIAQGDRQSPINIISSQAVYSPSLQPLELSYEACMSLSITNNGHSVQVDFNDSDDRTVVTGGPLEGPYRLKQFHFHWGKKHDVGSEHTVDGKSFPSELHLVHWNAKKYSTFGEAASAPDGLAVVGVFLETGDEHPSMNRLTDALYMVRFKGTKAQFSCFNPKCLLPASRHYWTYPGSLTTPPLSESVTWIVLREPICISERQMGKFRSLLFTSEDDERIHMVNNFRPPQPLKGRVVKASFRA

Row | SMILES | Ki [1] [µM] | Ki [2] [µM] | Ki [3] [µM] | ED50 [4] [mg/kg] | CL/F ([5]; plasma levels) [mL/min/kg] | Cmax ([5]; plasma levels) [ng/mL] | MRT ([5]; plasma levels) [h] | Tmax ([5]; plasma levels) [h] | half-life ([5]; plasma levels) [h] | Vd/F ([5]; plasma levels) [L/kg] | AUC(0-inf) ([5]; 80 mg/kg, plasma levels) [ng·h/mL] | Ki [6] [µM] | Protective Index (PI = TD50/ED50) (rats [7]) | TD50 [8] [mg/kg] | AUCinf [9] [ng·h/mL] | AUC(0-inf) ([9]; brain) [ng·h/mL] | CL/F [9] [mL/min/kg] | Cmax [9] [ng/mL] | MRT [9] [h] | Tmax [9] [h] | further results
1 | CCC(C)OC(=O)Nc1ccc(S(N)(=O)=O)cc1 (racemic) [Racemic-MBPC] | 0.0971 ± 0.0053 | 0.121 ± 0.008 | 0.432 ± 0.028 | 25 | 41.7 | 15300 | 1.7 | 0.33 | 0.5 | 4.3 | 32000 | 0.0202 ± 0.0015 | >20 | > 500 | 47800 | 48000 | 28.3 | 16500 | 2 | 1.33 | Kp ([9]; brain/plasma): 1.49; half-life [9]: 0.7 h; Vd/F [9]: 3.4 L/kg
2 | CCC(C)CCOC(=O)Nc1ccc(S(N)(=O)=O)cc1 (racemic) [Racemic-MSPC, 3-methylpentyl(4-sulfamoylphenyl)carbamate] | – | – | – | – | – | – | – | – | – | – | – | – | – | – | – | – | – | – | – | – | Ki [10]: 0.351 ± 0.026 µM; Ki [11]: 0.75 ± 0.042 µM; Ki [12]: 0.0076 ± 0.0005 µM; MES-ED50 [95% CI] ([13]; rats dosed i.p.): 13 [8–22] mg/kg; MES-ED50 [95% CI] ([13]; rats dosed p.o.): 28 [18–35] mg/kg; Ki [14]: 0.077 ± 0.0047 µM; Neurotoxicity-TD50 [95% CI] (rats [15]; rats dosed i.p.): >250 mg/kg; Protective Index (PI = TD50/ED50) (rats [15]; rats dosed i.p.): >19; Neurotoxicity-TD50 [95% CI] (rats [15]; rats dosed p.o.): >500 mg/kg; Protective Index (PI = TD50/ED50) (rats [15]; rats dosed p.o.): >18
3 | CC[C@@H](C)OC(=O)Nc1ccc(S(N)(=O)=O)cc1 [(R)-MBPC] | 0.203 ± 0.013 | 0.197 ± 0.014 | 0.522 ± 0.026 | 39 | 55 | 10700 | 2 | 1.7 | 0.6 | 6.7 | 24000 | 0.0071 ± 0.0004 | >13 | > 500 | 30400 | 30000 | 43.3 | 11400 | 2.1 | 2.7 | enantiostability (chiral inversion) [16]: no chiral inversion was observed; higher clearance than its enantiomer ([5]; (R)- vs (S)-enantiomer): 65%; effectiveness relative to its (S)-enantiomer against hCA II ([6]; ratio of KI values): five times more effective; Kp ([9]; brain): 1.27; half-life [9]: 0.5 h; Vd/F [9]: 5.4 L/kg
4 | CC[C@@H](C)CCOC(=O)Nc1ccc(S(N)(=O)=O)cc1 [(R)-MSPC] | – | – | – | – | – | – | – | – | – | – | – | – | – | – | – | – | – | – | – | – | Ki [10]: 0.17 ± 0.009 µM; Ki [11]: 0.81 ± 0.055 µM; Ki [12]: 0.0033 ± 0.0002 µM; MES-ED50 [95% CI] ([13]; rats dosed i.p.): 39 [31–44] mg/kg; MES-ED50 [95% CI] ([13]; rats dosed p.o.): 30 [22–37] mg/kg; Ki [14]: 0.0341 ± 0.0025 µM; Neurotoxicity-TD50 [95% CI] (rats [15]; rats dosed i.p.): 134 [108–158] mg/kg; Protective Index (PI = TD50/ED50) (rats [15]; rats dosed i.p.): 3.4
5 | CC[C@H](C)OC(=O)Nc1ccc(S(N)(=O)=O)cc1 [(S)-MBPC] | 0.0718 ± 0.0065 | 0.0533 ± 0.0029 | 0.249 ± 0.013 | 19 | 33.3 | 12700 | 2.7 | 1 | 1.2 | 5.7 | 40000 | 0.0349 ± 0.0014 | >11 | > 200 | 51500 | 52000 | 26.7 | 15200 | 4.2 | 1.66 | times more effective than the (R)-enantiomer against hCA I ([1]; ratio of KI values): 2.9 times; times more effective than the (R)-enantiomer against hCA VII ([2]; ratio of KI values): 3.7 times; enantiostability (chiral inversion) [16]: no chiral inversion was observed; AUCinf ([5]; plasma levels, 80 mg/kg): 39600 ng·h/mL; Kp ([9]; brain): 1.32; half-life [9]: 0.9 h; Vd/F [9]: 5 L/kg
6 | CC[C@H](C)CCOC(=O)Nc1ccc(S(N)(=O)=O)cc1 [(S)-MSPC] | – | – | – | – | – | – | – | – | – | – | – | – | – | – | – | – | – | – | – | – | Ki [10]: 0.744 ± 0.036 µM; Ki [11]: 0.593 ± 0.042 µM; Ki [12]: 0.0203 ± 0.0014 µM; MES-ED50 [95% CI] ([13]; rats dosed i.p.): 43 [33–52] mg/kg; MES-ED50 [95% CI] ([13]; rats dosed p.o.): 24 [17–29] mg/kg; Ki [14]: 0.13 ± 0.008 µM; Neurotoxicity-TD50 [95% CI] (rats [15]; rats dosed i.p.): 149 [121–157] mg/kg; Protective Index (PI = TD50/ED50) (rats [15]; rats dosed i.p.): 3.5
